Experimental data taken from US11472778B2, “Hepatitis C virus NS3/4A protease inhibitors” (priority 2017, dated 2022).
Like-named read-outs stand apart in the source and are kept apart here.

How the values were obtained:
[1] = tested on: HCV replicon A156T variant in Huh7 cells; experiment: microbe, parasite or virus in culture; assay type: cell-based, Hepatitis C virus; settings: for EC50: Hepatitis C virus; for Replicon EC50 (Fold change) A156T: Table 4, relative to WT replicon
Description: (§1) Mutations (R155K, A516T, D168A and D168V) were constructed by site-directed mutagenesis using a Con1 (genotype 1b) luciferase reporter replicon containing the H77 (genotype 1a) NS3 sequence.
(§2) Replicon RNA of each protease variant was introduced into Huh7 cells by electroporation. Replication was then assessed in the presence of increasing concentrations of protease inhibitors by measuring luciferase activity (relative light units) 96 h after electroporation.
(§3) Mutations (R155K, D168A and A156T) were constructed by site-directed mutagenesis using a Con1 (genotype 1b) luciferase reporter replicon containing the H77 (genotype 1a) NS3 sequence.^6 Replicon RNA of each protease variant was introduced into Huh7 cells by electroporation. Replication was then assessed in the presence of increasing concentrations of protease inhibitors by measuring luciferase activity (relative light units) 96 h after electroporation.

[2] = tested on: HCV replicon D168A variant in Huh7 cells; experiment: microbe, parasite or virus in culture; assay type: cell-based, Hepatitis C virus; settings: for EC50: Hepatitis C virus; for Replicon EC50 (Fold change) D168A: Table 4, relative to WT replicon
Description: as §1, §2, §3

[3] = tested on: HCV replicon R155K variant in Huh7 cells; experiment: microbe, parasite or virus in culture; assay type: cell-based, Hepatitis C virus; settings: for EC50: Hepatitis C virus; for Replicon EC50 (Fold change) R155K: Table 4, relative to WT replicon
Description: as §1, §2, §3

GT3a NS3/4A protease = molecular target: T1, GT3a NS3/4A protease (Hepatitis C virus genotype 3a, UniProt Q81495); experiment: biochemical; settings: for Ki (Fold change) GT3a NS3/4A Protease: Table 3, Ki GT3a relative to GT1a WT
T1 construct: drug-resistant variant D168A, and GT3a NS3/4A protease; made in house; host or cells: Escherichia coli BL21(DE3)
Description: (§4) For each assay, 2 nM of NS3/4A protease (GT1, D168A and GT3) was pre-incubated at room temperature for 1 h with increasing concentration of inhibitors in assay buffer [50 mM Tris, 5% glycerol, 10 mM DTT, 0.6 mM LDAO, and 4% dimethyl sulfoxide]. Inhibition assays were performed in nonbinding surface 96-well black half-area plates (Corning) in a reaction volume of 60 μt. […] Three independent data sets were collected for each inhibitor with each protease construct.

[4] = tested on: wild-type HCV replicon in Huh7 cells; experiment: Cell-based drug susceptibility (replicon) assay, wild-type; settings: Hepatitis C virus, read-out: Replicon EC50 (nM) WT
Description: as §1, §2, §3

[5] = tested on: HCV replicon D168V variant in Huh7 cells; experiment: microbe, parasite or virus in culture; assay type: cell-based, Hepatitis C virus; settings: for EC50: Hepatitis C virus; for Replicon EC50 (Fold change) D168V: Table 4, relative to WT replicon
Description: as §1
Replicon RNA of each protease variant was introduced into Huh7 cells by electroporation. Replication was then assessed in the presence of increasing concentrations of protease inhibitors by measuring luciferase activity (relative light units) 96 h after electroporation. […]

[6] = molecular target: T2, wild-type GT1a NS3/4A protease (UniProt P27958, C1185S, species not given); assay type: biochemical, Hepatitis C virus; settings: read-out: Ki (nM) GT1a WT NS3/4A Protease
T2 construct: Ki (nM) GT1a WT NS3/4A Protease
Description: as §4
(§5) For each assay, 2 nM of NS3/4A protease (GT1a and D168A) was pre-incubated at room temperature for 1 h with increasing concentration of inhibitors in assay buffer (50 mM Tris, 5% glycerol, 10 mM DTT, 0.6 mM LDAO, and 4% dimethyl sulfoxide, pH 7.5). Inhibition assays were performed in non-binding surface 96-well black half-area plates (Corning) in a reaction volume of 60 μL. […] Three independent data sets were collected for each inhibitor with each protease construct.
(§6) For each assay, 2 nM of NS3/4A protease (GT1a, R155K and D168A) was pre-incubated at room temperature for 1 h with increasing concentration of inhibitors in assay buffer (50 mM Tris, 5% glycerol, 10 mM DTT, 0.6 mM LDAO, and 4% dimethyl sulfoxide, pH 7.5). Inhibition assays were performed in non-binding surface 96-well black half-area plates (Corning) in a reaction volume of 60 μL. […] Three independent data sets were collected for each inhibitor with each protease construct. […] Gibbs free energy of binding was calculated using the following equation: ΔG=RTlnKi

[7] = molecular target: GT1a D168A NS3/4A protease; assay type: biochemical, Hepatitis C virus; settings: Table 3; Ki D168A relative to GT1a WT
Description: as §4, §5, §6

[8] = molecular target: T3, GT1a D168A NS3/4A protease (UniProt P27958, C1185S/D1194A, species not given); assay type: biochemical, Hepatitis C virus; settings: read-out: Ki (nM) GT1a D168A NS3/4A Protease
T3 construct: Ki (nM) GT1a D168A NS3/4A Protease
Description: as §4, §5, §6

[9] = Huh-7, 96 h, read-out: Replicon EC50 (nM) A156T, Table 2, Huh7 cells, luciferase 96 h
[10] = Huh-7, read-out: Replicon EC50 (nM) A156T, Table 4
[11] = Huh-7, 96 h, read-out: Replicon EC50 (nM) D168A, Table 2, Huh7 cells, luciferase 96 h
[12] = Huh-7, read-out: Replicon EC50 (nM) D168A, Table 4
[13] = Huh-7, 96 h, read-out: Replicon EC50 (nM) R155K, Table 2, Huh7 cells, luciferase 96 h
[14] = Huh-7, read-out: Replicon EC50 (nM) R155K, Table 4
[15] = Huh-7, 96 h, Table 2, Huh7 cells, luciferase 96 h
[16] = Huh-7, 96 h, read-out: Replicon EC50 (nM) D168V, Table 2, Huh7 cells, luciferase 96 h
[17] = Huh-7, read-out: Replicon EC50 (nM) D168V, Table 4

T1 sequence (Q81495 1033-1214): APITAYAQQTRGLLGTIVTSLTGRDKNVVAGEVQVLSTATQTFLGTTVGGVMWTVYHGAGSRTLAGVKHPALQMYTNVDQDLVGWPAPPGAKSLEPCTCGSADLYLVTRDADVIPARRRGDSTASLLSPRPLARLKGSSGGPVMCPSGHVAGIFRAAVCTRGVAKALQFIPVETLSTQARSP

Structure (SMILES) | EC50 [1, 9] | EC50 [1, 10] | Replicon EC50 (Fold change) A156T [1] | EC50 [2, 11] | EC50 [2, 12] | Replicon EC50 (Fold change) D168A [2] | EC50 [3, 13] | EC50 [3, 14] | Replicon EC50 (Fold change) R155K [3] | Ki (GT3a NS3/4A protease) | Ki (Fold change) GT3a NS3/4A Protease (GT3a NS3/4A protease) | EC50 [4, 15] | EC50 ([4]; Huh-7, Table 4) | EC50 [5, 16] | EC50 [5, 17] | Replicon EC50 (Fold change) D168V [5] | Ki ([6]; Table 1) | Ki ([6]; Table 3) | Ki (Fold change) GT1a D168A NS3/4A Protease [7] | Ki ([8]; Table 1) | other results
CCc1nc2ccc(OC)cc2nc1O[C@@H]1C[C@H]2C(=O)N[C@]3(C(=O)NS(=O)(=O)C4CC4)C[C@H]3/C=C\CCCCC[C@H](NC(=O)OC3CCCC3)C(=O)N2C1 [Compound 22a, Cyclopentyl ((2R,6S,13aS,14aR,16aS,Z)-14a-((cyclopropylsulfonyl)carbamoyl)-2-((3-ethyl-7-methoxyquinoxalin-2-yl)oxy)-5,16-dioxo-1,2,3,5,6,7,8,9,10,11,13a,14,14a,15,16,16a-hexadecahydrocyclopropa[e]pyrrolo[1,2-a][1,4]diazacyclopentadecin-6-yl)carbamate] | 11.8 nM | 11.8 nM | (84) fold | 3.6 nM | 3.6 nM | (26) fold | 2.08 nM | 2.08 nM | (15) fold | 211 nM | (170) fold | 0.14 nM | 0.14 nM | 11.9 nM | 11.9 nM | (85) fold | 1.24 nM | 1.24 nM | (42) fold | 52.3 nM | Ki ([8]; Table 3): 52.3 ± 3.2 nM
COc1ccc2nc(C)c(O[C@@H]3C[C@H]4C(=O)N[C@]5(C(=O)NS(=O)(=O)C6CC6)C[C@H]5/C=C\CCCCC[C@H](NC(=O)OC5CCCC5)C(=O)N4C3)nc2c1 [Compound 22b, Cyclopentyl ((2R,6S,13aS,14aR,16aS,Z)-14a-((cyclopropylsulfonyl)carbamoyl)-2-((7-methoxy-3-methylquinoxalin-2-yl)oxy)-5,16-dioxo-1,2,3,5,6,7,8,9,10,11,13a,14,14a,15,16,16a-hexadecahydrocyclopropa[e]pyrrolo[1,2-a][1,4]diazacyclopentadecin-6-yl)carbamate] | 2.88 nM | 2.88 nM | (26) fold | 2.63 nM | 2.63 nM | (24) fold | 0.89 nM | 0.89 nM | (8) fold | 147 nM | (158) fold | 0.11 nM | 0.11 nM | 4.32 nM | 4.32 nM | (39) fold | 0.93 nM | 0.93 nM | (34) fold | 31.9 nM | Ki ([8]; Table 3): 31.9 ± 2.5 nM
COc1ccc2nc(Cl)c(O[C@@H]3C[C@H]4C(=O)N[C@]5(C(=O)NS(=O)(=O)C6CC6)C[C@H]5/C=C\CCCCC[C@H](NC(=O)OC5CCCC5)C(=O)N4C3)nc2c1 [Compound 22c, Cyclopentyl ((2R,6S,13aS,14aR,16aS,Z)-2-((3-chloro-7-methoxyquinoxalin-2-yl)oxy)-14a-((cyclopropylsulfonyl)carbamoyl)-5,16-dioxo-1,2,3,5,6,7,8,9,10,11,13a,14,14a,15,16,16a-hexadecahydrocyclopropa[e]pyrrolo[1,2-a][1,4]diazacyclopentadecin-6-yl)carbamate] | 3.55 nM | 3.55 nM | (24) fold | 1.32 nM | 1.32 nM | (9) fold | 0.59 nM | 0.59 nM | (4) fold | 85.6 nM | (175) fold | 0.15 nM | 0.15 nM | 1.55 nM | 1.55 nM | (10) fold | 0.49 nM | 0.49 nM | (62) fold | 30.6 nM | Ki ([8]; Table 3): 30.6 ± 2.6 nM
COc1ccc2nc(C(F)(F)F)c(O[C@@H]3C[C@H]4C(=O)N[C@]5(C(=O)NS(=O)(=O)C6CC6)C[C@H]5/C=C\CCCCC[C@H](NC(=O)OC5CCCC5)C(=O)N4C3)nc2c1 [Compound 22d, Cyclopentyl ((2R,6S,13aS,14aR,16aS,Z)-14a-((cyclopropylsulfonyl)carbamoyl)-2-((7-methoxy-3-(trifluoromethyl)quinoxalin-2-yl)oxy)-5,16-dioxo-1,2,3,5,6,7,8,9,10,11,13a,14,14a,15,16,16a-hexadecahydrocyclopropa[e]pyrrolo[1,2-a][1,4]diazacyclopentadecin-6-yl)carbamate] | 117 nM | 117 nM | (24) fold | 15.1 nM | 15.1 nM | (3) fold | 7.97 nM | 7.97 nM | (2) fold | 757 nM | (100) fold | 4.86 nM | 4.86 nM | 24 nM | 24 nM | (5) fold | 7.55 nM | 7.55 nM | (15) fold | 115 nM | Ki ([8]; Table 3): 115 ± 12 nM
